{"source": "patent US9029567B2", "about": "“Hypoglycemic compounds” (Cadila Pharmaceuticals Limited, priority 2010, dated 2015)", "system": "Wistar female rats", "assay": "Oral Glucose Tolerance Test in animals (in vivo screening of hypoglycemic effect)", "conditions": "three experiments; for % change in glucose level (Mean ± SEM) 30 Min: 30 min after glucose (2 gm/Kg, given 3 hrs after compound), oral equimolar dose (Sitagliptin 9.0, CPL-2009-0030 11.28, CPL-2009-0031 12.0 mg/kg), no treatment 199 ± 5; for % change in glucose level (Mean ± SEM) 1 Hr: 1 hr after glucose (2 gm/Kg, given 3 hrs after compound), no treatment 154 ± 4; for % change in glucose level (Mean ± SEM) 1 Hr / % change in glucose level (Mean ± SEM) 2 hr: oral equimolar dose; for % change in glucose level (Mean ± SEM) 2 hr: 2 hr after glucose (2 gm/Kg, given 3 hrs after compound), no treatment 122 ± 5", "description": "The efficacy compound CPL-2009-0030 and CPL-2009-0031 were prepared as per present invention. They were evaluated through Oral Glucose Tolerance Test in animals. Each group consist of 10-12 weeks old Wistar female rats. The animals were divided into 4 different groups of 6 animals per group. The group I received vehical (WFI Placebo), Group II received Sitagliptin as positive control, Group III received CPL-2009-0030 and Group IV received CPL-2009-0031. All animals had over night fasting.\nThe drug was administrated as per table 01 at 0 hour to all the study group animals with 10 mL/kg of dose volume. The compounds were administered orally. The glucose (2 gm/Kg body weight) was administered 3 hrs after the administration of compounds. Blood glucose was measured at the time of administration of compound, glucose and 30 min, 1 hr, 2 hr, 3 hr and 4 hr after the glucose administration. […] The rise was maximum at 30 min after glucose administration. […] The difference between no treatment group and other three groups is maximum at 30 min and it decreases over time (FIG. 1). […] Thus, the compound of present invention reduces hyperglycaemic effect of glucose without inducing hypoglycaemia. In other words, compounds of present invention provide hypoglycaemic effect only to reduce post-prandial hyperglycaemia without inducing fasting hypoglycaemia.\nTo confirm the finding the experiment was repeated three times and the percentage change in glucose level over time of three experiments is presented in table 02. The repeat experiments also confirm the findings.", "data": [{"smiles": "CCC(C)C(N)C(=O)NC(CC(=O)N1CCn2c(nnc2C(F)(F)F)C1)Cc1cc(F)c(F)cc1F", "note": "(stereo not drawn) [CPL-2009-0030]", "values": [{"measurement": "% change in glucose level (Mean ± SEM) 30 Min", "value": "145 ± 13", "unit": "%"}, {"measurement": "% change in glucose level (Mean ± SEM) 1 Hr", "value": "127 ± 6", "unit": "%"}, {"measurement": "% change in glucose level (Mean ± SEM) 2 hr", "value": "108 ± 5", "unit": "%"}]}, {"smiles": "NC(Cc1ccccc1)C(=O)NC(CC(=O)N1CCn2c(nnc2C(F)(F)F)C1)Cc1cc(F)c(F)cc1F", "note": "(stereo not drawn) [CPL-2009-0031]", "values": [{"measurement": "% change in glucose level (Mean ± SEM) 30 Min", "value": "125 ± 3", "unit": "%"}, {"measurement": "% change in glucose level (Mean ± SEM) 1 Hr", "value": "123 ± 4", "unit": "%"}, {"measurement": "% change in glucose level (Mean ± SEM) 2 hr", "value": "110 ± 3", "unit": "%"}]}, {"smiles": "N[C@@H](CC(=O)N1CCn2c(nnc2C(F)(F)F)C1)Cc1cc(F)c(F)cc1F", "note": "[Sitagliptin, reference compound]", "values": [{"measurement": "% change in glucose level (Mean ± SEM) 30 Min", "value": "149 ± 5", "unit": "%"}, {"measurement": "% change in glucose level (Mean ± SEM) 1 Hr", "value": "130 ± 4", "unit": "%"}, {"measurement": "% change in glucose level (Mean ± SEM) 2 hr", "value": "109 ± 2", "unit": "%"}]}]}
